Reference: US12121510B2 (Cedars-Sinai Medical Center, priority 2016, dated 2024)
Where two headings read alike, the source gives them in different places.

Experiments:
[1] = tested on: Namalwa; test: Lymphoma cell growth IC50 (MTT); type: cell-based, human
Excerpt: (§1) Exemplary Embodiments are generally performed as follows, unless otherwise noted. Simvastatin is purchased from Ark Pharm, Inc. (Arlington Heights, IL). Cisplatin (CIS) is purchased from MedKoo Biosciences, Inc. (Chapel Hill, NC). Dihydroartemisinin is purchased from TCI America (Portland, OR). All other chemicals and reagents are purchased from standard sources such as Sigma-Aldrich and/or VWR and are of highest quality available. Puromycin dihydrochloride was purchased from Alfa Aesar (Tewksbury, MA). Deionized water ([…]) used for making solutions is obtained from Milli-Q Direct Ultrapure Water System from Millipore (Billerica, MA, USA). All intermediates are characterized by 1H NMR and mass analysis and the purity of compounds are analyzed by HPLC. 1H NMR data are collected on Bruker 400 MHz spectrometers using standard parameters; chemical shifts are reported in ppm (δ) in reference to residual non-deuterated solvent. ESI mass spectroscopy analysis is performed using a Thermo Fisher LTQ Orbitrap Elite system. IC50 is the half maximal inhibitory concentration and determined is determined by crystal violet assay unless otherwise noted.
(§2) The crystal violet assay is performed as follows, unless otherwise noted. Cell lines are supplemented with RPMI 1640 medium, 10% fetal bovine serum, 1% PenStrep, and placed in a humidified atmosphere containing 5% CO2 at 37° C. 5,000 cells/well renal cancer cells and 10,000 cells/well lymphoma cells are seeded in 96 well plates in 100 microliter medium/per well for 24 h. […] Renal cancer cells are fixed with 3.7% paraformaldehyde for 15 minutes and are stained with Crystal violet solution (0.5% in 25% methanol) for 30 minutes. After rinsing with water cell layers are dried and decolorized with Sorenson citrate with shaking for 20 minutes. Light absorption of the extracted supernatant is read at 595 nm. Lymphoma cell growth was evaluated using MTT and cells are incubated for 4 hours. 100 microliters of isopropanol is added, and the extracted supernatant fraction is read at absorption maximum of 595 nm.
(§3) Standard cell culture conditions typically are RPMI 1640 medium, 10% fetal bovine serum, 1% PenStrep, and are performed in a humidified atmosphere containing 5% CO2 at 37° C. Generally, 5,000 cells/well-10,000 cells/well are seeded in 96 well plates in 100 microliter medium/per well for 24 h, or as described in Example 16, unless otherwise noted. Certain cells require specialized media, growth factors, antibiotics, or culture condition adjustments, as will be apparent to a person of ordinary skill in the art.
as §2, with “Cell” for “The crystal violet assay is performed as follows, unless otherwise noted. Cell”, “cultured as follows. […]” for “supplemented with RPMI 1640 medium, 10% fetal bovine serum, 1% PenStrep, and placed in a humidified atmosphere containing 5% CO2 at 37° C.”, “is” for “was”

[2] = tested on: CTC 752-S-1; test: Circulating tumor cell growth IC50 / sensitization; type: cell-based, human
Excerpt: as §1, §3
Pancreatic cancer cells are cultured for 72 hours in vitro and exposed to the conventional chemotherapeutic drugs Gemcitabine (GEM) and Paclitaxel (PAC), known to inhibit pancreatic cancer growth in patients. GEM (or PAC) alone are compared to a combination with SIM, or a combination with DZ-SIM. […] Representative results are illustrated in the graphs in FIG. 3.
Cells are cultured according to their standard culturing conditions, and IC50s are determined as described herein-above.
Representative results of the determined IC50s are shown in the table below for the indicated cancer cells cultured in vitro, including CTCs (C752-S-1), B-Cell Lymphoma (Namalwa), prostate cancer cells (C4-2B), and renal cancer cells (Caki-1). The cells are cultured according to their standard culturing conditions, and IC50s are determined as described herein-above.

[3] = tested on: Caki-1; test: Renal cancer cell growth IC50 (crystal violet); type: cell-based, human; conditions: Caki-1, read-out: IC50
Excerpt: as §1, §2, §3
as §2, with “Cell” for “The crystal violet assay is performed as follows, unless otherwise noted. Cell”, “cultured as follows. […]” for “supplemented with RPMI 1640 medium, 10% fetal bovine serum, 1% PenStrep, and placed in a humidified atmosphere containing 5% CO2 at 37° C.”, “is” for “was”

[4] = tested on: C4-2B; test: Cancer cell growth IC50 (crystal violet); type: cell-based
Excerpt: as §1, §2, §3

[5] = tested on: 22Rv1 tumors; test: Prostate tumor xenograft growth; type: in vivo, mice; conditions: IP twice per week, 37 days; SIM 1.1 mg/kg, DZ-SIM 5.5 mg/kg, DT 8 mg/kg
Description: A human prostate tumor xenograft model, 22Rv1 in immune compromised mice, is employed as follows. 1×10^6 freshly harvested cells of a cultured human prostate carcinoma cell line, 22Rv1, are inoculated s.q. in mice. Mice bearing 22Rv1 tumors (10 tumors/group) are randomized into 7 groups on day-1, and administered drugs by IP (intraperitoneally) at the next day (day-2), and subsequently twice per week, using the following drugs and dosages: a control/vehicle (V, i.e. no drug), DZ (5 μM or 3.9 mg/kg, calculated based on the body weight of mice which averaged 20 grams), SIM (5 μM or 1.1 mg/kg), DZ-SIM (5 μM or 5.5 mg/kg), docetaxel (DT, 8 mg/kg), SIM+DT (drug doses as indicated), and DZ-SIM+DT (drug doses as indicated). Administration is continued for a total of 37 days, and tumor volumes are measured at the indicated times (see FIG. 4). […] Thus therapeutically resistant prostate tumors can be rendered sensitive by DZ-SIM but not SIM.

[6] = tested on: A549 or A549/DDP cells; test: CIS IC50 with constant DZ-SIM ester or amide, Crystal Violet assay; type: cell-based, human; conditions: combination with CIS; 72 h
Description: Cell proliferation is determined by a Crystal Violet assay. The data represent the mean+/−SEM for two assays done in quadruplicate.

[7] = tested on: Raji; test: Lymphoma cell growth IC50 (MTT); type: cell-based, human; conditions: Homo sapiens, Example 13, 72 h, read-out: IC50
Excerpt: as §1, §2, §3
as §2, with “Cell” for “The crystal violet assay is performed as follows, unless otherwise noted. Cell”, “cultured as follows. […]” for “supplemented with RPMI 1640 medium, 10% fetal bovine serum, 1% PenStrep, and placed in a humidified atmosphere containing 5% CO2 at 37° C.”, “is” for “was”

[8] = tested on: Ramos; test: Lymphoma cell growth IC50 (MTT); type: cell-based, human; conditions: Homo sapiens, Example 13, 72 h, read-out: IC50
Excerpt: as §1, §2, §3
as §2, with “Cell” for “The crystal violet assay is performed as follows, unless otherwise noted. Cell”, “cultured as follows. […]” for “supplemented with RPMI 1640 medium, 10% fetal bovine serum, 1% PenStrep, and placed in a humidified atmosphere containing 5% CO2 at 37° C.”, “is” for “was”

[9] = tested on: Daudi; test: Lymphoma cell growth IC50 (MTT); type: cell-based, human; conditions: Homo sapiens, Example 13, 72 h, read-out: IC50
Excerpt: as §1, §2, §3
as §2, with “Cell” for “The crystal violet assay is performed as follows, unless otherwise noted. Cell”, “cultured as follows. […]” for “supplemented with RPMI 1640 medium, 10% fetal bovine serum, 1% PenStrep, and placed in a humidified atmosphere containing 5% CO2 at 37° C.”, “is” for “was”

[10] = tested on: 22Rv1; test: Cancer cell growth IC50 (crystal violet); type: cell-based, human; conditions: Homo sapiens, Example 13, 72 h
Excerpt: as §1
(§4) The crystal violet assay is performed as follows, unless otherwise noted. Cell lines are supplemented with RPMI 1640 medium, 10% fetal bovine serum, 1% PenStrep, and placed in a humidified atmosphere containing 5% CO2 at 37° C. 5,000 cells/well renal cancer cells and 10,000 cells/well lymphoma cells are seeded in 96 well plates in 100 microliter medium/per well for 24 h. […] Renal cancer cells are fixed with 3.7% paraformaldehyde for 15 minutes and are stained with Crystal violet solution (0.5% in 25% methanol) for 30 minutes. After rinsing with water cell layers are dried and decolorized with Sorenson citrate with shaking for 20 minutes. Light absorption of the extracted supernatant is read at 595 nm. Lymphoma cell growth was evaluated using MTT and cells are incubated for 4 hours. 100 microliters of isopropanol is added, and the extracted supernatant fraction is read at absorption maximum of 595 nm. […]

[11] = tested on: MIAPaCa II; test: Cancer cell growth IC50 / sensitization (crystal violet); type: cell-based; conditions: MIA PaCa-2, Example 13, 72 h
Excerpt: as §1, §4

[12] = tested on: Ramos, a B-cell lymphoma, cultured as 3-D spheroids; test: Cell viability IC50 in 3-D spheroids; type: cell-based, human; conditions: Homo sapiens; Ramos 3-D spheroids; 72 h; single agent
Excerpt: as §1
Cancer cells were Ramos, a B-cell lymphoma, cultured as 3-D spheroids, cultured according to their standard culturing conditions.

[13] = tested on: LNCaP; test: Cancer cell growth IC50 (crystal violet); type: cell-based; conditions: Homo sapiens, Example 13, 72 h
Excerpt: as §1, §2, §3

[14] = tested on: MCF-7; test: Cancer cell growth IC50 (crystal violet); type: cell-based; conditions: Homo sapiens, MCF7, Example 13, 72 h
Excerpt: as §1, §2, §3

[15] = tested on: PC3M; test: Cancer cell growth IC50 (crystal violet); type: cell-based; conditions: Homo sapiens, PC-3M, Example 13, 72 h
Excerpt: as §1, §2, §3

[16] = tested on: C4-2; test: Cancer cell growth IC50 (crystal violet); type: cell-based; conditions: C4-2; Example 13; C42; 72 h
Excerpt: as §1, §2, §3

[17] = tested on: U87; test: Cancer cell growth IC50 (crystal violet); type: cell-based; conditions: Homo sapiens, U-87 MG, Example 13, 72 h
Excerpt: as §1, §2, §3

[18] = tested on: PC3; test: Cancer cell growth IC50 (crystal violet); type: cell-based; conditions: Homo sapiens, PC-3, Example 13, 72 h
Excerpt: as §1, §2, §3

[19] = tested on: ARCaP-E; test: Cancer cell growth IC50 (crystal violet); type: cell-based; conditions: Example 13, 72 h
Excerpt: as §1, §2, §3

[20] = Homo sapiens, Example 23, read-out: IC50
[21] = Homo sapiens, Example 23, CTC 752-S-1

## C[C@@H]1CC[C@H]2[C@@H](C)C(=O)O[C@@H]3O[C@@]4(C)CC[C@@H]1[C@]32OO4 [ART, Artemisinin]
[1]; Homo sapiens, Example 22, read-out: IC50
  IC50: > 64000 nM
[2]; Homo sapiens, Example 22, CTC 752-S-1, 3D cultured tumor spheroids
  IC50: > 64000 nM
[3]; Homo sapiens, Example 22
  IC50: > 64000 nM
[4]; Example 22
  IC50: 657 nM

## CC(=O)O[C@@]12CO[C@@H]1C[C@H](O)[C@@]1(C)C(=O)[C@H](O)C3=C(C)[C@@H](OC(=O)[C@H](O)[C@@H](NC(=O)OC(C)(C)C)c4ccccc4)C[C@@](O)([C@@H](OC(=O)c4ccccc4)[C@H]21)C3(C)C [DT, Docetaxel]
[5]
  Growth of 22Rv1 tumors in vivo (tumor volume): ineffective

## CC1CCC2C(C)C(OC(=O)CCCCCN3C(=CC=C4CCCC(C=CC5=[N+](CCCCS(=O)(=O)[O-])c6ccccc6C5(C)C)=C4Cl)C(C)(C)c4ccccc43)OC3OC4(C)CCC1C32OO4 (centres unmarked) [DZ-ART ester]
[1]; Example 22, read-out: IC50
  IC50: 1300 nM
[2]; Example 22, CTC 752-S-1, 3D cultured tumor spheroids
  IC50: 1640 nM
[3]; Example 22
  IC50: 703 nM
[4]; Example 22
  IC50: 291 nM

## COc1cccc2c1C(=O)c1c(O)c3c(c(O)c1C2=O)C[C@@](O)(C(=O)CO)C[C@@H]3O[C@H]1C[C@H](NC(=O)CCCCCN2/C(=C/C=C3\CCCC(/C=C/C4=[N+](CCCCS(=O)(=O)[O-])c5ccccc5C4(C)C)=C3Cl)C(C)(C)c3ccccc32)[C@@H](O)[C@H](C)O1 [DZ-Doxorubicin]
[1]; [20]
  IC50: 6230 nM
[2]; [21]
  IC50: 3410 nM
[3]; Homo sapiens, Example 23
  IC50: > 64000 nM
[4]; Example 23
  IC50: 206 nM

## COc1ccc(C[C@H](NC(=O)CCCCCN2/C(=C/C=C3\CCCC(/C=C/C4=[N+](CCCCS(=O)(=O)[O-])c5ccccc5C4(C)C)=C3Cl)C(C)(C)c3ccccc32)C(=O)NC2C(CO)OC(n3cnc4c(N(C)C)ncnc43)C2O)cc1 (some centres unmarked) [DZ-Puromycin]
[1]; [20]
  IC50: 22400 nM
[2]; [21]
  IC50: 31400 nM
[3]; Homo sapiens, Example 23
  IC50: > 64000 nM
[4]; Example 23
  IC50: 1320 nM

## CCC(C)(C)C(=O)O[C@H]1C[C@@H](C)C=C2C=C[C@H](C)[C@H](CC[C@@H](O)C[C@@H](O)CC(=O)CCCCNC(=O)CCCCCN3/C(=C/C=C4\CCCC(/C=C/C5=[N+](CCCCS(=O)(=O)[O-])c6ccccc6C5(C)C)=C4Cl)C(C)(C)c4ccccc43)[C@H]21 [DZ-SIM amide]
[6]
  Sensitization of cancer cells to CIS: sensitize cancer cells to CIS

## COc1cccc2c1C(=O)c1c(O)c3c(c(O)c1C2=O)C[C@@](O)(C(=O)CO)C[C@@H]3O[C@H]1C[C@H](N)[C@H](O)[C@H](C)O1 [Doxorubicin]
[1]; [20]
  IC50: 666 nM
[2]; [21]
  IC50: 1820 nM
[3]; Homo sapiens, Example 23
  IC50: 880 nM
[4]; Example 23
  IC50: 43.1 nM

## COc1ccc(C[C@H](N)C(=O)N[C@H]2[C@@H](O)[C@H](n3cnc4c(N(C)C)ncnc43)O[C@@H]2CO)cc1 [Puromycin]
[1]; [20]
  IC50: 969 nM
[2]; [21]
  IC50: 4870 nM
[3]; Homo sapiens, Example 23
  IC50: 740 nM
[4]; Example 23
  IC50: 249 nM

## CCC(C)(C)C(=O)O[C@H]1C[C@@H](C)C=C2C=C[C@H](C)[C@H](CC[C@@H]3C[C@@H](O)CC(=O)O3)[C@H]21 [SIM, Simvastatin]
[7]
  IC50: 32500 nM
[1]; Homo sapiens, Example 13, 72 h, read-out: IC50
  IC50: 13400 nM
[8]
  IC50: 13000 nM
[9]
  IC50: 15000 nM
[10]
  IC50: 3520 nM
[11]
  IC50: 592 nM
[12]
  IC50: 13000 nM
[13]
  IC50: 3760 nM
[14]
  IC50: 2690 nM
[15]
  IC50: 248 nM
[16]
  IC50: 7730 nM
[17]
  IC50: 506 nM
[4]; Example 13, 72 h
  IC50: 1880 nM
[18]
  IC50: 991 nM
[19]
  IC50: 5610 nM
